Results as given in patent US20080182830A1, “Agent for Treatment and Prevention of Endometriosis and Uterine Adenomyosis” (priority 2005, published 2008).

Key:
[1] = system: chorioallantoic membrane of chicken; settings: Lin J. et al. 2002; G. Melkonian et al. 2004; cited from earlier work
[2] = system: deep endometriosis; test: Therapy of deep endometriosis (2), 18 cases, vaginal ring; format: in vivo, human
Protocol: A vaginal ring containing 8 to 10 mg of 3-ethylpyridine was inserted into the vagina of each of deep endometriosis patients (18 cases) for 3 months. As a result, disappearance of pressure pain and induration in Cul-de-Sac was recognized in 9 cases, and improvement thereof was recognized in 7 cases, and nullity thereof was recognized in 2 cases. The menstrual pain disappeared in 4 cases, and improved in 13 cases and null in only one case. A coital pain disappeared in 10 cases and a defecation pain was improved in 7 cases.

[3] = system: vaginal endometriosis; test: Therapy of vaginal endometriosis, vaginal ring; format: in vivo, human
Protocol: A patient having endometriosis recurred after operation of the left ovary and Cul-de-Sac endometriosis was subjected to the treatment using the therapeutic agent according to the present invention. In the patient with an induration about 7 cm×about 5 cm in a deep right posterior fornix of the vagina. […] Moreover, menstrual pain, extramenstrual pain, severe lower abdominal pain, defecation pain, and coital pain were recognized. Accordingly, the above-described doughnut-type ring containing 9 mg 3-ethylpyridine was inserted into the posterior vaginal fornix. As a result, four weeks after the insertion, the coital pain, the defecation pain, the extramenstrual lower abdominal pain and low back pain disappeared, and the menstrual pain was reduced. The induration at the right posterior fornix of the vagina was scaled down to 4 cm×2 cm. Then, by continuous treatment, the induration at the right posterior fornix of the vagina was further scaled down to have 2 cm×1 cm. In addition to the above case, with respect to each of patients of other two cases having endometriosis, the pathological endometriosis was confirmed by biopsy and then, a vaginal ring containing 8 to 10 mg of 3-ethylpyridine was inserted into the vagina.

[4] = system: uterine adenomyosis; test: Therapy of uterine adenomyosis (2), patient series with intrauterine devices; format: in vivo, human
Protocol: An intrauterine device (IUD) containing 600 μg to 900 μg of 3-ethylpyridine was inserted for 6 months […] of each of patients (12 cases) having uterine adenomyosis recurring after the nasal administration or injection of GnRH analogs.

[5] = system: deep endometriosis; test: Therapy of deep endometriosis (1), single patient, vaginal rings; format: in vivo, human
Source text: A patient suffered from intensive menstrual pain by deep endometriosis was subjected to the treatment using the therapeutic agent according to the present invention.

[6] = system: ovarian chocolate cyst; test: Therapy of ovarian chocolate cyst, injection into aspirated cyst; format: in vivo, human
Source text: A patient having ovarian chocolate cyst was subjected to the treatment using the therapeutic agent according to the present invention. In this patient, by transvaginal ultrasonic diagnosis, the cyst having a diameter of 6 cm was recognized in Cul-de-Sac. Moreover, CA125 in the blood indicated 1522 units and CA602 indicated 352 units (the normal value is 63 units or less). The indicated values were abnormally high. It was confirmed that the distance from the vaginal fornix to cyst was within 1 cm, and under observation with a transvaginal ultrasonography, the cyst content was punctured with a needle from the posterior vaginal fornix and was aspirated. Then, the 2 mL ethanol solution containing 2 mg of 3-ethyl pyridine was injected. As a result, the ovarian chocolate cyst disappeared four weeks after the injection. The uterus was scaled down to 2.5 cm. The menstrual pain disappeared. Moreover, CA125 in the blood was lowered to be 52 units and CA602 was lowered to be 61 units.
In addition to the above case, patients of other 12 cases having chocolate cysts were subjected to the following treatment. That is, under a transvaginal ultrasonic guide, the ovarian chocolate cyst having a distance within 10 mm from the posterior vaginal fornix was punctured and the cyst content was aspirated and then the 3 mL ethyl ether solution containing 3 mg of 3-ethylpyridine was injected into the cyst. As a result, in all 12 cases, the ovarian chocolate cyst was scaled down, and at the same time, the menstrual pain disappeared in eight cases, and, improved in three cases. […] In addition, existence of malignant cells in the aspirated cystic content was denied by cytodiagnosis.

[7] = system: uterine adenomyosis; test: Therapy of uterine adenomyosis (1), single patient; format: in vivo, human
Source text: A patient having uterine adenomyosis was subjected to the treatment using the therapeutic agent according to the present invention. The patient had been subjected to injection of Leuplin, which was a therapeutic drug for endometriosis at one time per a month continuously for six months. However, the disease was not cured. Then, the uterus was enlarged to have a size corresponding to the third month of pregnancy, and menstrual pain was severe, and a menstrual bleeding was abundant. Moreover, CA125 in the blood indicated 441 units (the normal units are 35 units or less) and CA602 indicated 1025 units (the normal value is 63 units or less). The indicated values were abnormally high.
The menstrual pain and the hypermenorrhea disappeared. Moreover, CA125 in the blood was reduced to be 38 units and CA602 was reduced to 53 units after 60 days from the initiation of the administration. Accordingly, it can be said that the uterine adenomyosis was fully cured.

[8] = vaginal ring 8 to 10 mg for 3 months
[9] = doughnut-type ring 9 mg, four weeks after insertion
[10] = other two cases, vaginal ring containing 8 to 10 mg
[11] = IUD containing 600 μg to 900 μg, 6 months, 12 cases
[12] = vaginal ring 10 mg 3-ethylpyridine, after the danazol ring
[13] = other 12 cases, 3 mL ethyl ether solution containing 3 mg
[14] = single patient, 2 mL ethanol solution containing 2 mg injected
[15] = IUD-type device containing 825 μg
[16] = IUD-type device containing 825 μg inserted into the uterus
[17] = vaginal ring 1,000 mg danazol for 6 months

CCc1cccnc1 [3-ethylpyridine]
growth of chorioallantoic membrane of chicken [1]: inhibits the growth
coital pain disappeared [2, 8]: 10 cases
defecation pain improved [2, 8]: 7 cases
improvement of pressure pain and induration in Cul-de-Sac [2, 8]: 7 cases
menstrual pain disappeared [2, 8]: 4 cases
menstrual pain improved [2, 8]: 13 cases
menstrual pain null [2, 8]: one
nullity (no effect) on pressure pain and induration in Cul-de-Sac [2, 8]: 2 cases
disappearance of pressure pain and induration in Cul-de-Sac ([2]; vaginal ring containing 8 to 10 mg for 3 months): 9 cases
defecation pain [3, 9]: disappeared
extramenstrual lower abdominal pain and low back pain [3, 9]: disappeared
menstrual pain [3, 9]: reduced
menstrual pain and defecation pain [3, 10]: disappeared in all the cases
vaginal endometriosis [3, 10]: disappeared macroscopically and histologically in all two cases
coital pain ([3]; patient, doughnut-type ring containing 9 mg in posterior vaginal fornix, four weeks after insertion): disappeared
menstrual pain disappeared [4, 11]: eight
menstrual pain improved [4, 11]: four
therapeutic effect [4, 11]: in all the cases, therapeutic effect was recognized
hypermenorrhea disappeared ([4]; IUD containing 600 μg to 900 μg, 6 months, 12 cases recurring after GnRH analogs): nine
induration in Cul-de-Sac [5, 12]: not scaled down
menstrual pain [5, 12]: further decreased
CA125 in the blood ([5]; vaginal ring containing 10 mg 3-ethylpyridine, after the danazol ring, in 3 months, from 620 units): 250 units
cyst enlarged again after the six months [6, 13]: three
menstrual pain disappeared [6, 13]: eight
menstrual pain improved [6, 13]: three
ovarian chocolate cyst scaled down ([6]; other 12 cases, 3 mL ethyl ether solution containing 3 mg injected into the cyst): 12 cases
CA602 in the blood ([6]; single patient, 2 mg injected, before 352 units, normal 63 units or less): 61 units
CA125 in the blood ([6]; single patient, 2 mg injected, before 1522 units): 52 units
menstrual pain [6, 14]: disappeared
uterus scaled down to [6, 14]: 2.5 cm
ovarian chocolate cyst ([6]; single patient, 2 mL ethanol solution containing 2 mg injected after aspiration, four weeks after injection, cyst diameter 6 cm before): disappeared
ovary chocolate cyst outcome after repeated puncture and injection ([6]; the three cases enlarged again after six months): could be cured
CA125 in the blood ([7]; IUD-type device 825 μg, after 60 days from initiation, before 441 units, normal 35 units or less): 38 units
CA602 in the blood ([7]; IUD-type device 825 μg, after 60 days from initiation, before 1025 units, normal 63 units or less): 53 units
recurrence after suspension of the treatment [7, 15]: not recognized
uterine adenomyosis outcome [7, 15]: fully cured
hypermenorrhea [7, 16]: disappeared
menstrual pain [7, 16]: disappeared
size of the uterine corpus ([7]; IUD-type device containing 825 μg inserted into the uterus, six months after insertion, before: size of third month of pregnancy): scaled down to a normal size

CCNC(=O)[C@@H]1CCCN1C(=O)[C@H](CCCNC(=N)N)NC(=O)[C@H](CC(C)C)NC(=O)[C@@H](CC(C)C)NC(=O)[C@H](Cc1ccc(O)cc1)NC(=O)[C@H](CO)NC(=O)[C@H](Cc1c[nH]c2ccccc12)NC(=O)[C@H](Cc1c[nH]cn1)NC(=O)[C@@H]1CCC(=O)N1 [Leuplin, reference compound]
disease (uterine adenomyosis) outcome ([7]; patient, injection one time per month continuously for six months): not cured

C#C[C@]1(O)CC[C@H]2[C@@H]3CCC4=Cc5oncc5C[C@]4(C)[C@H]3CC[C@@]21C [danazol, reference compound]
uterine adenomyosis outcome ([4]; earlier treatment with IUDs containing danazol, the 55 cases): not cured
CA125 in the blood ([5]; patient, vaginal ring containing 1,000 mg danazol for 6 months, from 950 units): 620 units
menstrual pain [5, 17]: reduced but not fully cured
painful induration in Cul-de-Sac [5, 17]: not scaled down
